Test results: ChEMBL document CHEMBL1133835, “A unique ring-expanded acyclic nucleoside analogue that inhibits both adenosine deaminase (ADA) and guanine deaminase (GDA; guanase): synthesis and enzyme inhibition studies of 4,6-diamino-8H-1-hydroxyethoxymethyl-8-iminoimidazo[4,5-e][1,3]diazepine” (Bioorg Med Chem Lett, 2001)

Biological target: T1, Adenosine deaminase (Bos taurus, UniProt P56658)
T1 sequence (P56658 whole entry): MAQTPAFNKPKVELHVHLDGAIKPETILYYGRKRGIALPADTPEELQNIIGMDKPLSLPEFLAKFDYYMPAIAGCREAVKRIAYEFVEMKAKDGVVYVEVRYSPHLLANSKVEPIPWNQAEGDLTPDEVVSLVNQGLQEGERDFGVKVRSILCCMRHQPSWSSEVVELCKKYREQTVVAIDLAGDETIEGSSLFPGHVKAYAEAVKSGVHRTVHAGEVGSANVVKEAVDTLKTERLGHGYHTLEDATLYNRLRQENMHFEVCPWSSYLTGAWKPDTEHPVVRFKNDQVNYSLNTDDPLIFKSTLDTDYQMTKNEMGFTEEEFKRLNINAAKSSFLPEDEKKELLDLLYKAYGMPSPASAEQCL
Experiment: Binding affinity against Adenosine deaminase from calf intestinal mucosa was determined
Format: tissue-based

## CCCCCC[C@@H]([C@@H](C)O)n1cnc2c(N)ncnc21 [EHNA]
  Ki: 0.01 µM
